The text below walks through data of patent publication US20240082273A1, “NEUROKININ INHIBITORS SUCH AS APREPITANT FOR TREATING NON SMALL CELL LUNG CARCINOMA OR BREAST CANCER WITHOUT MUTATIONS” (priority 2020, published 2024).

The test system of the assay is A549. The assay is described as follows: MTT proliferation, A549. The assay is classed as cell-based, human. As to conditions: 48 hours. The source says: EGFR, ALK and ROS1 are key molecular factors that may be used to determine pathological classification, prognosis, therapeutics and behaviour in patients with lung cancer. EGFR, ALK and ROS1 are biomarkers routinely analysed in the clinical practice of the management of patients with NSCLC. NSCLC with molecular profile EGFR-/ALK-/ROS1- presents a better response to treatment with the NK1 inhibitor aprepitant, compared to lung cancer with different profiles (in particular, EGFR+/ALK-/ROS1- and EGFR-/ALK+/ROS1-, in which EGFR and ALK respectively contain mutations relative to their wild type gene). Commercial lines of lung cancer were used as shown in Table 2 together with their molecular profile. The molecular profile of the cancer cell lines was determined by sequencing and can be consulted in the Cancer Cell Line Encyclopaedia database of public access available at the url: https://portals.broadinstitute.org/ccle All cells were cultured in wells under vendor-recommended conditions and exposed to different concentrations of aprepitant for 48 hours. In each case a group of wells of cells were used to which no treatment was applied and which were considered as controls. At 48 hours the number of cells was measured. Eight cell lines of human were used for the study of NK1 inhibitors (Table 3). All of them were maintained in culture in their respective culture media (Gibco,Thermo Fisher Scientific) supplemented with 10% foetal bovine serum (FBS) (Gibco, Thermo Fisher Scientific), 2 mM L-Glutamine (Gln) (Sigma-Aldrich, Merk), and […] and […] Gibco, Thermo Fisher Scientific) in a humidified incubator at 37° C. and 5% CO2. Cell culture media used are Dulbecco's Modified Eagle Medium (DMEM), and RPMI Medium 1640 (RPMI-1640). To measure cell viability, the cytotoxicity of drugs in culture was evaluated using the 3-(4,5-Dimethyl-2-thiazolyl)-2,5-diphenyl-2H-tetrazolium bromide (MTT) reduction assay. This assay assesses cell viability through the indirect measurement of the activity of reductases that convert yellow soluble MTT into purple insoluble formazan salts. As MTT can only be reduced when these enzymes are active, the reaction is used as an indicator of the cell metabolic competence and, therefore, of viability. A variable number of cells (depending on the cell line) were seeded in 96 multi-well plates and grown during 24 hours. The following day, the culture medium was aspirated and fresh culture medium with the drug dissolved was added to the wells. After 24 hours or 48 hours cell viability was measurement by adding 10 μl of a 5 mg/ml MTT solution (M5655; Sigma-Aldrich) and 100 μl of HCl 0.01M-SDS 10% solution 4 hours later. After 24 hours, the absorbance was measured at 595 nm, using a multi-well plate reader (iMark, Bio-rad). Each condition was tested 5 times, obtaining 5 values of absorbance. All sample measurements were corrected using the blank (culture medium without cells) mean absorbance value, and normalized to positive control to determinate relative cell viability for each condition at 24 and 48 hours.

Take `C[C@@H](O[C@H]1OCCN(Cc2nc(=O)[nH][nH]2)[C@H]1c1ccc(F)cc1)c1cc(C(F)(F)F)cc(C(F)(F)F)c1` [Aprepitant]: the Mean proliferation is, setting by setting: (aprepitant 1 μM) 96.56; (aprepitant 3 μM) 94.80; (aprepitant 5 μM) 64.40; (aprepitant 10 μM) 52.17; (aprepitant 20 μM) 40.48; (aprepitant 30 μM) 35.59. Moreover, the Mean proliferation by setting is: (aprepitant 40 μM) 21.55; (aprepitant 50 μM) 9.17; (aprepitant 60 μM) 11.36.
